Laboratory results from patent US20250002476A1, “AZOLE COMPOUNDS FOR CONTROLLING INVERTEBRATE PESTS” (FMC Corporation, priority 2021, published 2025).

Legend:
Type in all cases: in vivo
[1] = tested on: cotton melon aphid (Aphis gossypii (Glover)); experiment: Test E: control of cotton melon aphid on sprayed okra plant; conditions: 144 h, pre-infested, 6 days; for mortality at 50 ppm: sprayed at 50 ppm; for mortality at 10 ppm: sprayed at 10 ppm; for mortality at 250 ppm: sprayed at 250 ppm
Method: (§1) Test compounds were formulated using a solution containing 10% acetone, 90% water and 300 ppm Activator 90@ non-ionic surfactant (Loveland Products, Loveland, Colorado, USA). The formulated compounds were applied in 1 mL of liquid through an atomized nozzle positioned 1.27 cm (0.5 inches) above the top of each test unit. Test compounds were sprayed at the rates indicated, and each test was replicated three times.
For evaluating control of cotton melon aphid (Aphis gossypii (Glover)) through contact and/or systemic means, the test unit consisted of a small open container with a 5-day-old okra plant inside. This was pre-infested with 30-40 insects on a piece of leaf according to the cut-leaf method, and the soil of the test unit was covered with a layer of sand.
Test compounds were formulated and sprayed at 250, 50, 10 and 2 ppm. After spraying, the test units were maintained in a growth chamber for 6 days at 19° C. and 70% relative humidity. Each test unit was then visually assessed for insect mortality.

[2] = tested on: Green Peach Aphid (Myzus persicae (Sulzer)); experiment: Test D: control of Green Peach Aphid on sprayed radish plant; conditions: 144 h, pre-infested, 6 days; for mortality at 50 ppm: sprayed at 50 ppm; for mortality at 250 ppm: sprayed at 250 ppm
Method: as §1
For evaluating control of Green Peach Aphid (Myzus persicae (Sulzer)) through contact and/or systemic means, the test unit consisted of a small open container with a 12-15-day-old radish plant inside. Prior to compound application, each test unit was pre-infested by placing on a leaf of the test plant 30-40 aphids on a piece of leaf excised from a culture plant (cut-leaf method). The aphids moved onto the test plant as the leaf piece desiccated. After pre-infestation, the soil of the test unit was covered with a layer of sand.
Test compounds were formulated and sprayed at 250 and 50 ppm. After spraying of the formulated test compound, each test unit was allowed to dry for 1 hour and then a black, screened cap was placed on top. The test units were held for 6 days in a growth chamber at 19-21° C. and 50-70% relative humidity. Each test unit was then visually assessed for insect mortality.

[3] = tested on: Corn Planthopper (Peregrinus maidis (Ashmead)); experiment: Test B: control of Corn Planthopper on sprayed corn plant; conditions: 144 h, nymphs, 6 days; for mortality at 10 ppm: sprayed at 10 ppm; for mortality at 250 ppm: sprayed at 250 ppm; for mortality at 50 ppm: sprayed at 50 ppm
Method: as §1
For evaluating control of Corn Planthopper (Peregrinus maidis (Ashmead)) through contact and/or systemic means, the test unit consisted of a small open container with a 3-4-day-old corn (maize) plant inside. White sand was added to the top of the soil prior to application of the test compound.
Test compounds were formulated and sprayed at 250, 50 and 10 ppm. After spraying of the formulated test compound, the test units were allowed to dry for 1 h before they were post-infested with ˜15-20 nymphs (18-to-21-day-old). A black, screened cap was placed on the top of each test unit, and the test units were held for 6 days in a growth chamber at 22-24° C. and 50-70% relative humidity. Each test unit was then visually assessed for insect mortality.

[4] = tested on: silverleaf whitefly (Bemisia argentifolii (Bellows and Perring)); experiment: Test F: control of silverleaf whitefly on sprayed soybean plant; conditions: 288 h, pre-infested (oviposition), 12 days; for mortality at 250 ppm: sprayed at 250 ppm; for mortality at 50 ppm: sprayed at 50 ppm
Method: as §1
For evaluating control of silverleaf whitefly (Bemisia argentifolii (Bellows and Perring)) through contact and/or systemic means, each test unit consisted of a small open container with a 5-7 day old soybean plant inside. This was pre-infested by placing test units into cages containing adult whiteflies so that oviposition on the leaves could occur. The adults were removed from the plants with an air-blast nozzle, and the test units were capped. The test units were then stored 2 to 3 days before spraying.
Test compounds were formulated and sprayed at 250 and 50 ppm. After spraying, the test units were maintained in a growth chamber for 12 days at 23° C. and 70% relative humidity. Each test unit was then visually assessed for insect mortality.

| SMILES | mortality at 50 ppm [1] | mortality at 250 ppm [1] | mortality at 250 ppm [3] | mortality at 50 ppm [3] | further results |
| --- | --- | --- | --- | --- | --- |
| CCC#CCn1ncc(-c2cncc(C#N)c2)n1 [Compound 232] | ≥ 80% | – | – | – | – |
| CCC#CCn1nnc(-c2ccc(C(F)(F)F)cc2)n1 [Compound 64, 2-(2-Pentyn-1-yl)-5-[4-(trifluoromethyl)phenyl]-2H-tetrazole] | – | – | – | – | mortality at 50 ppm [2]: ≥ 80%; mortality at 10 ppm [3]: ≥ 80%; mortality at 10 ppm [1]: ≥ 80% |
| CCC#CCn1nnc(-c2ccsc2)n1 [Compound 129] | – | ≥ 80% | – | – | – |
| COCC#CCn1ncc(-c2ccc(C(F)(F)F)cc2)n1 [Compound 299] | – | – | – | – | mortality at 250 ppm [4]: ≥ 50% |
| CCC#CCn1cc(-c2ccc(C(F)(F)F)nc2)nn1 [Compound 125] | – | – | ≥ 80% | – | – |
| CCC#CCn1ncc(-c2cncc(C(F)(F)F)c2)n1 [Compound 204, 3-[2-(2-Pentyn-1-yl)-2H-1,2,3-triazol-4-yl]-5-(trifluoromethyl)pyridine] | – | – | – | ≥ 80% | mortality at 50 ppm [2]: ≥ 80%; mortality at 10 ppm [1]: ≥ 80% |
| CCC#CCn1nnc(-c2cc(OC)cc(C(F)(F)F)c2)n1 [Compound 286, 5-[3-Methoxy-5-(trifluoromethyl)phenyl]-2-(2-pentyn-1-yl)-2H-tetrazole] | ≥ 80% | – | ≥ 80% | – | mortality at 50 ppm [4]: ≥ 50% |
| CCC#CCn1cc(-c2ccc(OC(F)(F)F)nc2)nn1 [Compound 206] | – | – | ≥ 80% | – | – |
| CCC#CCn1cc(-c2ccc(C(F)(F)F)cn2)nn1 [Compound 123, 2-[1-(2-Pentyn-1-yl)-1H-1,2,3-triazol-4-yl]-5-(trifluoromethyl)pyridine] | ≥ 80% | – | – | ≥ 80% | – |
| CCC#CCn1cc(-c2ccnc(C(F)(F)F)c2)nn1 [Compound 198] | – | ≥ 80% | ≥ 80% | – | – |
| CCC#CCn1cc(-c2cncc(C#N)c2)nn1 [Compound 233] | – | ≥ 80% | – | – | – |
| CCC#CCn1nnc(-c2ccc(C(F)(F)F)cn2)n1 [Compound 122] | – | – | ≥ 80% | – | – |
| CCC#CCn1nnc(-c2cc(OC)ccn2)n1 [Compound 223] | – | ≥ 80% | – | – | – |
| CCC#CCn1nnc(-c2cc(C#N)ccn2)n1 [Compound 303] | – | ≥ 80% | – | – | – |
| CCC#CCn1nnc(-c2cnc3ccccc3c2)n1 [Compound 169] | ≥ 80% | – | ≥ 80% | – | – |
| CCC#CCn1cc(-c2cc(C(F)(F)F)ccn2)nn1 [Compound 208] | – | ≥ 80% | – | ≥ 80% | – |
| CCC#CCn1nnc(-c2ccnc(C(F)(F)F)c2)n1 [Compound 188] | ≥ 80% | ≥ 80% | – | – | mortality at 250 ppm [2]: ≥ 80%; mortality at 10 ppm [3]: ≥ 80% |
| CCC#CCn1ncc(-c2cc(C(F)(F)F)ccn2)n1 [Compound 203] | ≥ 80% | – | ≥ 80% | – | mortality at 250 ppm [2]: ≥ 80% |
| COCC#CCn1nnc(-c2ccc(C(F)(F)F)cc2)n1 [Compound 300] | – | ≥ 80% | – | – | mortality at 250 ppm [4]: ≥ 50% |
| CCC#CCn1cc(-c2cncc(OC)c2)nn1 [Compound 255] | – | – | ≥ 80% | – | – |
| CCC#CCn1nnc(-c2ccc(OC(F)F)cc2)n1 [Compound 311, 5-[4-(Difluoromethoxy)phenyl]-2-(2-pentyn-1-yl)-2H-tetrazole] | ≥ 80% | – | – | ≥ 80% | mortality at 50 ppm [4]: ≥ 50% |
| CCC#CCn1nnc(-c2cc(C(F)(F)F)ccn2)n1 [Compound 177] | ≥ 80% | – | – | – | – |
| CCC#CCn1cc(-c2cncc(C(F)(F)F)c2)nn1 [Compound 205] | – | ≥ 80% | ≥ 80% | – | – |
| CCC#CCn1ncc(-c2ccnc(C(F)(F)F)c2)n1 [Compound 197] | ≥ 80% | – | – | ≥ 80% | – |
| CCC#CCn1ncc(-c2cccc(C(F)(F)F)n2)n1 [Compound 213] | ≥ 80% | – | ≥ 80% | – | mortality at 250 ppm [2]: ≥ 80% |

| SMILES | mortality at 50 ppm [1] | mortality at 250 ppm [1] | mortality at 250 ppm [3] | mortality at 50 ppm [3] | further results |
| --- | --- | --- | --- | --- | --- |
| CCC#CCn1nnc(-c2ccc3ccccc3c2)n1 [Compound 168] | ≥ 80% | – | – | ≥ 80% | – |
| CCC#CCn1ncc(-c2cncc(OC)c2)n1 [Compound 252] | – | ≥ 80% | – | – | – |
| CCC#CCn1ncc(-c2ccc(F)cn2)n1 [Compound 150] | ≥ 80% | – | – | ≥ 80% | mortality at 250 ppm [2]: ≥ 80% |
| CCC#CCn1cc(-c2cncc(F)c2)nn1 [Compound 154] | – | ≥ 80% | ≥ 80% | – | – |
| CCC#CCn1ncc(-c2ccc(C(F)(F)F)cn2)n1 [Compound 124, 2-[2-(2-Pentyn-1-yl)-2H-1,2,3-triazol-4-yl]-5-(trifluoromethyl)pyridine] | ≥ 80% | – | – | ≥ 80% | mortality at 50 ppm [2]: ≥ 80% |
| CCC#CCn1nnc(-c2ccnc(C#N)c2)n1 [Compound 222] | ≥ 80% | – | – | – | – |
| CCC#CCn1ncc(-c2ccc(C(F)(F)F)nc2)n1 [Compound 126, 5-[2-(2-Pentyn-1-yl)-2H-1,2,3-triazol-4-yl]-2-(trifluoromethyl)pyridine] | – | – | – | – | mortality at 50 ppm [2]: ≥ 80%; mortality at 10 ppm [3]: ≥ 80%; mortality at 10 ppm [1]: ≥ 80% |
| CCC#CCn1ncc(-c2cccc(OC)n2)n1 [Compound 237] | – | ≥ 80% | – | ≥ 80% | – |
| CCC#CCn1cc(-c2cccc(C(F)(F)F)n2)nn1 [Compound 212] | – | – | ≥ 80% | – | – |
| CCC#CCn1ncc(-c2cc(OC)ccn2)n1 [Compound 234] | – | ≥ 80% | – | – | – |
| CCC#CCn1nnc(-c2cccc(OC)n2)n1 [Compound 251] | – | ≥ 80% | ≥ 80% | – | – |
| CCC#CCn1cc(-c2cccc(C#N)n2)nn1 [Compound 249] | – | ≥ 80% | – | – | – |
| CCC#CCn1ncc(-c2ccc(OC(F)(F)F)nc2)n1 [Compound 207, 5-[2-(2-Pentyn-1-yl)-2H-1,2,3-triazol-4-yl]-2-(trifluoromethoxy)pyridine] | ≥ 80% | – | – | ≥ 80% | mortality at 50 ppm [2]: ≥ 80% |
| CCC#CCn1ncc(-c2ccnc(C#N)c2)n1 [Compound 219] | ≥ 80% | – | – | – | – |
| CCC#CCn1nnc(-c2ccnc(OC)c2)n1 [Compound 236, 2-Methoxy-4-[2-(2-pentyn-1-yl)-2H-tetrazol-5-yl]pyridine] | ≥ 80% | – | – | ≥ 80% | mortality at 250 ppm [2]: ≥ 80% |
| CCC#CCn1cc(-c2cccc(C(F)(F)F)c2)nn1 [Compound 3, 1-(2-Pentyn-1-yl)-4-[3-(trifluoromethyl)phenyl]-1H-1,2,3-triazole] | – | – | – | ≥ 80% | – |
| CCC#CCn1ncc(-c2cccc(C#N)n2)n1 [Compound 250] | ≥ 80% | – | – | ≥ 80% | – |
| CCC#CCn1nnc(-c2cc3ccccc3o2)n1 [Compound 194] | ≥ 80% | – | ≥ 80% | – | – |
| CCC#CCn1nnc(-c2cccs2)n1 [Compound 130] | – | ≥ 80% | – | – | – |
| CCC#CCn1cc(-c2ccc(F)cn2)nn1 [Compound 149] | – | ≥ 80% | – | ≥ 80% | – |
| CCC#CCn1cc(-c2ccc(Cl)nc2)nn1 [Compound 156] | – | ≥ 80% | – | – | – |
| CCC#CCn1ncc(-c2cc(F)cc(C#N)c2)n1 [Compound 175, 3-Fluoro-5-[2-(2-pentyn-1-yl)-2H-1,2,3-triazol-4-yl]benzonitrile] | ≥ 80% | – | – | ≥ 80% | – |
| CCC#CCn1nnc(-c2ccc(Cl)cc2)n1 [Compound 60, 5-(4-chlorophenyl)-2-(pent-2-yn-1-yl)-1,2,3,4-tetrazole] | ≥ 80% | – | – | – | mortality at 250 ppm [2]: ≥ 80% |
| CCC#CCn1cc(-c2ccccc2)cn1 [Compound 114] | – | ≥ 80% | ≥ 80% | – | – |
